Measured values reported in patent publication US20050272682A1, “SiRNA targeting PI3K signal transduction pathway and siRNA-based therapy” (priority 2004, published 2005).
“Also recorded” adds a separate entry of the source.

Experiments:
KM20 cells [1] = experiment: DNA fragmentation assay (Cell Death Detection ELISA), KM20 cells; assay type: cell-based, human; conditions: KM20 cells
Method: Cells were transfected with pik3r1, Akt1 or scrambled siRNA. After 48 h, adherent cells were detached by rapid trypsinization, counted in a Hausser chamber and seeded at a density of 2×10^3 cells per well in 96-well flat-bottom microtiter plates and incubated in 250 μl of growth medium for 24 h at 37° C. Media were removed and either new complete media or TRAIL (100 ng/mL) was added in a final volume of 200 μL and allowed to grow for 24 h at 37° C. After treatment, DNA fragmentation was evaluated by examination of cytoplasmic histone-associated DNA fragments (mono- and oligonucleosomes) using a Cell Death Detection ELISA^Plus kit (Roche Molecular Biochemicals) according to the manufacturer's instructions and as previously described (Wang. et al., 2002). The experiments were repeated on at least 3 separate occasions.

KM20 cells [2] = experiment: Western blot of apoptosis-related proteins, KM20 cells; assay type: cell-based, human
Method: Cell culture transfection was carried out with siPORT™ Amine transfection agent according to the manufacturer's protocol. Three days after transfection with the siRNA duplexes, cells were harvested and protein expression was assessed by Western blot.
(§1) Western immunoblot analyses were performed as described previously (Wang, et al., 2000). Cells were lysed with TNN buffer at 4° C. for 30 min. Lysates were clarified by centrifugation (10,000×g for 30 min at 4° C.) and protein concentrations determined using the method of Bradford (1976). Briefly, total protein (100 μg) was resolved on a 10% polyacrylamide gel and transferred to Immobilon-P […] membranes. Filters were incubated overnight at 4° C. in blotting solution (Tris-buffered saline containing 5% nonfat dried milk and 0.1% Tween 20), followed by a 1-h incubation with primary antibodies. Filters were washed three times in a blocking solution and incubated with horseradish peroxidase-conjugated secondary antibodies for 1 h. After three additional washes, the immune complexes were visualized by ECL detection.

KM20 cells [3] = experiment: Ribonuclease protection assay, KM20 cells; assay type: cell-based, human
Method: (§2) Cells were treated with pik3r1 and Akt1 siRNA and harvested 72 h later. RNA was isolated from cells using TRIzol® RNA reagent according to the manufacturer's protocol. A multiprobe template set (hAPO3c), which assesses expression of caspase 8, FASL, FAS, DR3, Decoy receptor 1 (DcR1), DR4, DR5, TRAIL, TNFR p55, TRADD and the housekeeping genes GAPDH and L32, as well as the Human Apoptosis hAPO-2b and hAPO-2c Template Set were labeled using Ambion T7 MAXIscript. The Ambion RPA III kit was then utilized to hybridize the RNA from the samples with the labeled probes. After RNAse treatment of hybridized samples, protected products were resolved on a 5% acrylamide gel, adsorbed onto filter paper, and exposed to Kodak BioMax MR film in a cassette at −70° C. and analyzed as previously described (Wang, et al., 2000).

KM12C cells = experiment: Ribonuclease protection assay, KM12C cells; assay type: cell-based, human
Method: as §2

KM20 tumor xenografts [4] = experiment: KM20 tumor xenograft growth in nude mice, intratumoral siRNA with electrotherapy; assay type: in vivo; conditions: 5 μg siRNA intratumoral + electric pulses every 3rd day; by day 12, persisted for the study period (30 days)
Method: For in vivo studies, 4-6 week old male nude^nu/nu mice were obtained from Harlan Sprague Dawley (Indianapolis, Ind.) and housed in clean pathogen-free rooms in an environment with controlled temperature (22° C.), humidity, and a 12 h light/dark cycle. The mice were fed standard chow (Formula Chow 5008; Purina Mills, St. Louis, Mo.) and tap water ad libitum and allowed to acclimate for one week.
Prior to tumor injection, KM20 cells were harvested, washed twice in ice-cold serum free minimum Eagle's medium, counted for viable cells by trypan blue exclusion. The cells were resuspended in the same medium and used to inject mice subcutaneously (sc) with 2×10^6 cells in a volume of 0.2 ml. After tumors reached ˜60 mm^2, mice were sacrificed and 9 mm^2 tumor xenografts were transferred to the left flank of athymic mice. After tumor xenografts reached ˜60 mm^2 (day 10), mice were randomly divided into three groups (n=5 mice/group): the first group of mice was treated with scrambled siRNA, the second and third groups were treated with siRNA (5 μg diluted in 100 μl of serum free medium) directed against pik3r1 or Akt1, respectively, as intratumoral injections. […] Tumor growth was assessed every third day from day 10 onward by measuring the two greatest perpendicular tumor dimensions using vernier calipers (Mitutozo, Tokyo, Japan) (Wang, et al., 2002). […]

KM20 tumor xenografts [5] = experiment: Western blot of KM20 tumor xenografts after siRNA treatment; assay type: in vivo, mice
Method: as §1
Prior to tumor injection, KM20 cells were harvested, washed twice in ice-cold serum free minimum Eagle's medium, counted for viable cells by trypan blue exclusion. The cells were resuspended in the same medium and used to inject mice subcutaneously (sc) with 2×10^6 cells in a volume of 0.2 ml. After tumors reached ˜60 mm^2, mice were sacrificed and 9 mm^2 tumor xenografts were transferred to the left flank of athymic mice. After tumor xenografts reached ˜60 mm^2 (day 10), mice were randomly divided into three groups (n=5 mice/group): the first group of mice was treated with scrambled siRNA, the second and third groups were treated with siRNA (5 μg diluted in 100 μl of serum free medium) directed against pik3r1 or Akt1, respectively, as intratumoral injections. Treatments consisted of electrotherapy initiated from 2 to 3 min after intratumoral siRNA injection once a day every 3 days. Tumor growth was assessed every third day from day 10 onward by measuring the two greatest perpendicular tumor dimensions using vernier calipers (Mitutozo, Tokyo, Japan) (Wang, et al., 2002). Consistent with institutional requirements, the mice were euthanized once tumors grew to a size greater that 2 cm.
Electrotherapy consisted of intratumoral administration of pik3r1, Akt1 or scrambled control siRNA followed by exposure of tumor nodules to electric pulses. Square wave electric pulses of 70 μsec, 100 V amplitude were delivered through two parallel stainless steel electrodes (Tweezertrode Model 522, Holliston, Mass.) with an electropulsator BTX T 820 (Holliston, Mass.). In the study, plate electrodes with a distance of 10 mm between them were used for percutaneous delivery of electric pulses. Each run of electric pulses was delivered in two trains of tree pulses, with 1 sec interval, in two perpendicular directions. The orientation of the electric field was used to direct the uptake of the siRNA. Good contact between the electrodes and the skin was assured by means of a conductive gel. Nodules larger than 7 mm in diameter were treated with several runs of electric pulses, administered in adjacent positions in such a way that the whole tumor area was effectively treated.

[6] = siRNA in combination with TRAIL

pik3r1 siRNA: siRNA to human pik3r1 (p85α) used in KM20/KM12C cells and xenografts; SEQ ID NO:24 vs. SEQ ID NO:25 (chain 1 GAAUAUACCCGCACAUCCCUU; chain 2 GGGAUGUGCGGGUAUAUUCUU; listed as RNA, chemistry not given here)
DNA fragmentation (apoptosis) (KM20 cells [1]; siRNA alone compared to scrambled sequence): increase; also recorded: induced
TRAIL-mediated apoptosis (DNA fragmentation) (KM20 cells [1]; siRNA in combination with TRAIL 100 ng/mL): significant augmentation
Bax protein expression (KM20 cells [2]): increased
Bcl-2 protein expression (KM20 cells [2]): decreased
Bcl-xL protein expression (KM20 cells [2]): decreased
caspase-9 activation (35 kDa large active subunit) (KM20 cells [2]): activation
cytochrome C release (KM20 cells [2]): induced
protein expression for DR4/DR5 (KM20 cells [2]): increased
BID cleavage (KM20 cells [2]; [6]): BID cleavage
caspase-8 activation (KM20 cells [2]; [6]): activated
cleavage of pro-caspase-3 (KM20 cells [2]; siRNA in combination with TRAIL compared with TRAIL alone): enhanced
Bcl-w mRNA expression (KM20 cells [3]): decreased
Bcl-x (L, S) mRNA expression (KM20 cells [3]): decreased
expression of the other apoptotic-related genes in the probe set (KM20 cells [3]): no marked change
mRNA expression of DR4 and DR5 (KM20 cells [3]): increased
Bcl-w mRNA expression (KM12C cells): decreased
Bcl-x (L, S) mRNA expression (KM12C cells): decreased
KM20 tumor growth (KM20 tumor xenografts [4]): Significant inhibitory effects
Bax protein expression (KM20 tumor xenografts [5]): increased
PARP cleavage (KM20 tumor xenografts [5]): increased
activation of caspase-3 (KM20 tumor xenografts [5]): increased
activation of caspase-8 (KM20 tumor xenografts [5]): increased
activation of caspase-9 (KM20 tumor xenografts [5]): increased
p85α expression (KM20 tumor xenografts [5]): decreased
pAkt expression (KM20 tumor xenografts [5]): decreased
Bcl-xL protein expression (KM20 tumor xenografts [5]; compared to scrambled sequence): decreased
Mcl-1 protein expression (KM20 tumor xenografts [5]; compared to scrambled sequence): decreased
cytochrome C expression (KM20 tumor xenografts [5]; compared with scrambled control): increased
